In publication PMC12040169 (PLOS Biology, 2025) one finds viability data, which are given here for 81 compounds.

This data set can be described thus: in vitro. The note with it: human, hela cells, % viability.

The viability is a read-out of living cells in per cent, often relative to untreated cells. Regarding `N#Cc1cccc(Nc2cncc(-c3cccc(C(=O)NCCO)c3)n2)c1` [CBK037810], the viability at 28.5 h, 10 µM stood at 97.1%. In the case of `COc1ccnc(N2CCCN(CC(N)=O)CC2)n1` [CBK083992], the viability at 28.5 h, 10 µM was found to be 87.2%. As for `O=CN1C2CCC1c1cnc3cc(-c4cccc(F)c4)nn3c1C2` (stereo not drawn) [CBK282269], the viability at 28.5 h, 10 µM amounted to 91.9%.

Consider `Cc1cc(C)c(NC(=O)CSc2nnc(Cc3ccccc3)n2C)c(C)c1` [CBK265990], for which the viability at 28.5 h, 10 µM was found to be 110%. For `COc1ccc(C(=O)N2CCC3(CCCN(C(=O)CC4NC(=O)NC4=O)C3)C2)cc1OC` (stereo not drawn) [CBK137082], the viability at 28.5 h, 10 µM turned out to be 93.7%. On the same count and under the same terms, in the case of `COc1ccc(Br)c(C(=O)Nc2[nH]nc(O)c2Cc2c(Cl)cccc2Cl)c1` [CBK084554] it was 111%. The same measure, in the same setting: in the case of `Cn1ncc2c1CCCN(C(=O)c1cccc(C(F)(F)F)c1)C2` [CBK282252] it was 87.3%; in that of `Cc1[nH]nc(Nc2cccc(C(=O)O)c2)c1[N+](=O)[O-]` [CBK262725], 96.2%. `CCN(CC)CCCNC(=O)N1CCN(CCN2CCOCC2)CC1` [CBK155837]: the viability at 28.5 h, 10 µM was 90.9%. On the same count and under the same terms, under `Cc1cc(C)c2c(=O)[nH]c(SCC(=O)c3ccc(F)c(C)c3)nc2n1` [CBK266087] stands 102%. With `Cc1cc(I)ccc1NCC(=O)NN` [CBK261738], the viability at 28.5 h, 10 µM came out at 91.1%. As to `N#CCSc1nc(-c2cccnc2)ccc1C(=O)O` [CBK269387], the viability at 28.5 h, 10 µM stood at 106%. Take `CC(C)(Oc1ccc(F)cc1)C(=O)N1CCC(C(=O)NCCc2ccccc2)C1` (stereo not drawn) [CBK285702]: the viability at 28.5 h, 10 µM came to 101%. Turning to `CCOC(=O)C(C)n1nc(CC)n2c(cc3ccsc32)c1=O` (stereo not drawn) [CBK284127], the viability at 28.5 h, 10 µM turned out to be 103%.

For `O=C(COc1ccc(S(=O)(=O)N2CCCC2)cc1Cl)NCC1CCCO1` (stereo not drawn) [CBK268243], the viability at 28.5 h, 10 µM came out at 86.6%. Still for that read-out and setting: in the case of `COc1cc(/C=N/NC(=O)CNC(=O)c2ccncc2)ccc1O` [CBK262013] it was 102%. In the case of `COc1ccccc1CNC(=O)c1cnc2sc(C)cn2c1=O` [CBK287708], the viability at 28.5 h, 10 µM is 104%. On the same count and under the same terms, under `Cc1ccc(-n2c(SCC(=O)NC(C)Cc3ccccc3)nc3sc4c(c3c2=O)CC(C)(C)OC4)cc1` (stereo not drawn) [CBK267714] stands 94.7%; under `COc1ccc(NC(=O)c2ccc3ncsc3c2)cc1` [CBK287368], 107%; under `Cc1noc(C)c1C(=O)N1CC[C@H]2NC(=O)c3ccccc3OCC/C=C/C[C@H]2C1` [CBK291994], 100%.

For `CCc1nc2c(OCc3ccccc3)cccn2c1N(C)C(=O)c1ccncc1` [CBK147876], the viability at 28.5 h, 10 µM stood at 90%.

Turning to `COc1cccc(CCNCC(O)COc2ncnc3ccccc23)c1` (stereo not drawn) [CBK028127T], the viability at 28.5 h, 10 µM came to 93.1%. As for `Nc1nc(-n2cnnc2)nn1-c1ccccc1` [CBK265015], the viability at 28.5 h, 10 µM was 97.2%. Still for that read-out and setting: in the case of `CCn1c2cc(C)oc2c2cnn(CC(=O)N3CCCC3)c(=O)c21` [CBK284215] it was 101%. Same read-out and setting: in the case of `COc1nccnc1OC1CCN(Cc2ccccc2)CC1` [CBK084238] it was 103%; in that of `N#Cc1ccc(N)c2ccccc12` [CBK015754], 90.6%. `COc1cccc(-c2cncc(C3CCCN(Cc4ccc5[nH]ccc5c4)C3)n2)c1` (stereo not drawn) [CBK286151]: the viability at 28.5 h, 10 µM was found to be 84.7%.

For `O=S(=O)(O)CCCSCCCS(=O)(=O)O` [CBK278307N], the viability at 28.5 h, 10 µM is 95.4%. For the compound `COC(=O)N1CCN(c2ccccc2)CC1` [CBK200414], the viability at 28.5 h, 10 µM worked out at 85.5%.

On to `COCc1cc(C[C@H]2CNCC[C@H]2CC(=O)N2CCc3ccccc3C2)no1` [CBK289144], for which the viability at 28.5 h, 10 µM amounted to 88.4%. Same read-out and setting: in the case of `O=C(c1cccnc1)C1CCN(C(=O)Cc2ccc(Cl)cc2)CC1` [CBK283813] it was 80.4%; in that of `O=C(O)C(O)C(O)c1nc2ccccc2[nH]1` (stereo not drawn) [CBK260955], 107%. Same read-out and setting: in the case of `O=C1NC[C@@H](CCC(=O)N2CCCCC2)N2C[C@@H](NS(=O)(=O)c3ccccc3)C[C@@H]12` [CBK289012] it was 92.9%; in that of `COC(=O)C[C@@H](C)NC(=O)[C@](OC)(c1ccccc1)C(F)(F)F` [CBK017864], 98.6%; in that of `CCc1ccc(C(=O)NC(Cc2c[nH]c3ccccc23)C(=O)O)cc1` (stereo not drawn) [CBK269556], 101%. Same read-out and setting: under `COC(=O)c1ccc(NC(=O)CC2Sc3ccc(C(F)(F)F)cc3NC2=O)cc1` (stereo not drawn) [CBK264645] stands 110%. Regarding `O=C1OC(c2c(O)nc(=O)[nH]c2O)c2ccccc21` (stereo not drawn) [CBK019775], the viability at 28.5 h, 10 µM (bulk resorufin, single well) stood at 113%.

For the compound `COc1cc([N+](=O)[O-])cc2cc(C(=O)NNC(=O)c3ccccc3Cl)c(=O)oc12` [CBK267011], the viability at 28.5 h, 10 µM stood at 92.8%.

With `OC(CN1CCC(O)(c2ccc(F)cc2)CC1)c1ccccc1` (stereo not drawn) [CBK282489], the viability at 28.5 h, 10 µM is 104%. As to `COc1ccc(CN2CCN(c3ccccn3)CC2)cc1O` [CBK261570], the viability at 28.5 h, 10 µM is 90.5%. Regarding `OCCOc1ccccc1-c1cc[nH]n1` [CBK001973], the viability at 28.5 h, 10 µM came out at 104%.

Regarding `Cc1ccc(S(=O)(=O)N(C)c2ccnc(N3CCN(C)CC3)n2)cc1` [CBK000671], the viability at 28.5 h, 10 µM turned out to be 99.4%. On the same count and under the same terms, under `O=[N+]([O-])c1ccc(Oc2cccc3cccnc23)c(C(F)(F)F)c1` [CBK002739] stands 80.6%.

`O=C(Nc1ccc2[nH]ccc2c1)c1ccc(Cl)cc1` [CBK159668]: the viability at 28.5 h, 10 µM is 98.4%. On the same count and under the same terms, in the case of `COC(=O)c1c(NC(=S)Nc2cnccn2)sc2c1CCC2` [CBK266935] it was 90.3%; in that of `CC(=O)NCCSc1cc(N2CCCC2)ncn1` [CBK105621], 106%; in that of `CN(C)S(=O)(=O)c1ccc(C(=O)Nc2ccc(Br)cc2C(=O)c2ccccc2)cc1` [CBK263243], 81.1%. Consider `CS(=O)(=O)N1CC2(CCN(Cc3ccccc3F)CC2)c2ccccc21` [CBK084004], for which the viability at 28.5 h, 10 µM came out at 103%. The same measure, in the same setting: in the case of `COc1ccc(CC(=O)Nc2nnc(C)s2)cc1OC` [CBK287359] it was 113%; in that of `Cc1noc(C)c1S(=O)(=O)Nc1csc(C(F)(F)F)c1-c1ccccc1` [CBK001237], 91%; in that of `CS(=O)(=O)N1CCC(c2nc(-c3ccc(C(F)(F)F)cc3)c3ccccn23)CC1` [CBK036006], 86.4%.

Consider `Cc1ccc(C(=O)C(C)OC(=O)c2ccc(NC(=O)c3ccccc3)cc2)cc1` (stereo not drawn) [CBK264302], for which the viability at 28.5 h, 10 µM was determined as 100%. Same read-out and setting: under `COCCn1c(CO)nnc1[C@H]1C[C@@H](NC(=O)c2cc(F)ccc2F)C1` [CBK307032] stands 85.1%. Same read-out and setting: under `O=C(CCCN1CCN(CCCC(=O)c2ccc(F)cc2)CC1)c1ccc(F)cc1` [CBK025317C] stands 89.1%. The same measure, in the same setting: under `CN1CCN(NC(=O)c2cc(-c3ccc(Cl)cc3)[nH]n2)CC1` [CBK116553] stands 90.8%. As for `Cc1ccc(CCC(=O)C(C#N)c2nc3ccccc3s2)o1` (stereo not drawn) [CBK268944], the viability at 28.5 h, 10 µM is 112%. For the compound `Cc1oc(-c2cccc(Cl)c2)cc1C(=O)O` [CBK045856], the viability at 28.5 h, 10 µM turned out to be 78%. On to `Cc1nsc(NCc2ccccc2CN2CCC(O)CC2)c1C#N` [CBK304695], for which the viability at 28.5 h, 10 µM is 95.1%. Same read-out and setting: under `COc1ccccc1C(CC(=O)O)c1ccc2c(c1)OCO2` (stereo not drawn) [CBK286971] stands 91.2%.

For the compound `CCC(=O)N1CCCc2cc(C(O)CN3CCCC(C)C3)ccc21` (stereo not drawn) [CBK283049], the viability at 28.5 h, 10 µM came out at 89.2%. Still for that read-out and setting: in the case of `CN(C)CCNC(=O)c1ccc(-c2cnc3[nH]c(=O)n(C4CCCC4)c3n2)cc1` [CBK064957] it was 110%; in that of `CC(C)CC(=O)N1CCC(c2nnc3n2CCCCC3)CC1` [CBK284629], 83.2%; in that of `Cc1nn(-c2ccc(F)cc2)c2[nH]c(=O)c(CNC(C)(C)C)cc12` [CBK283120], 102%. Same read-out and setting: under `COc1cccc(C(=O)N2CCN(C(=O)Nc3ccsc3)CC2)c1` [CBK154782] stands 91.5%; under `Cc1ccsc1CNC(=O)OCC1CCN(C)CC1` [CBK200149], 96.9%; under `FC(F)(F)c1ccc(OCCCc2ccncc2)nc1` [CBK115791], 101%. On the same count and under the same terms, in the case of `O=S(=O)(N1CCCCCC1)N1CCN(S(=O)(=O)N2CCCCCC2)CC1` [CBK269210] it was 88.3%; in that of `CC1(C)Cc2nc(N3CCOCC3)ncc2C(NC(=O)C2CCCC2)C1` (stereo not drawn) [CBK307687], 115%. With `CC(C)C1OC(NC2CC(C)(C)NC(C)(C)C2)=NC1=O` (stereo not drawn) [CBK070360T], the viability at 28.5 h, 10 µM was found to be 97.1%. For the compound `COCOc1ccc(-c2nc(-c3cccs3)cnc2N)cc1` [CBK063977], the viability at 28.5 h, 10 µM is 101%. For the compound `O=C(O)/C=C/C(=O)N(Cc1ccccn1)Cc1ccco1` [CBK286660], the viability at 28.5 h, 10 µM turned out to be 84.2%.

Regarding `COc1ccc2sc(N(Cc3cccnc3)C(=O)CCc3ccccc3)nc2c1` [CBK294423], the viability at 28.5 h, 10 µM came out at 81.2%. For the compound `COc1cc(CN2CCCC3(CCN(C(=O)c4cc(F)c(F)cc4F)C3)C2)cc(OC)c1OC` (stereo not drawn) [CBK131988], the viability at 28.5 h, 10 µM came to 101%. With `CC1CCCCC1NC(=O)Cn1ncc2cccn2c1=O` (stereo not drawn) [CBK283673], the viability at 28.5 h, 10 µM amounted to 98.7%. `Cc1noc(C2COCCN2C(=O)c2cc(Cl)cn2C)n1` (stereo not drawn) [CBK305120]: the viability at 28.5 h, 10 µM was 98.8%. As to `Cn1cc(CN2CCC(C(=O)NC(c3ccc4c(c3)OCO4)c3ccccn3)CC2)c2ccccc21` (stereo not drawn) [CBK148183], the viability at 28.5 h, 10 µM is 94%. Same read-out and setting: in the case of `CN(C)c1ccc(CCNC(=O)c2cn3ccccc3n2)cc1` [CBK281916] it was 87.4%; in that of `COc1ccc(CN2CC=CC2C(=O)O)cc1Cn1cncn1` (stereo not drawn) [CBK307524], 76.2%; in that of `Cc1nc2c(c(=O)[nH]1)CN(Cc1sccc1C)CC2` [CBK283950], 91.1%. Still for that read-out and setting: in the case of `NC(=O)c1cccc(-c2nc(-c3ccc(F)cc3F)cnc2N)c1` [CBK064109] it was 86.5%. `O=C(O)COc1c(Cl)cc(/C=C2\C(=O)NC(=S)N(c3ccc(F)cc3)C2=O)cc1Cl` [CBK263391]: for the setting “bulk resorufin, single well”, the viability at 28.5 h, 10 µM came to 107%.
